# US20040106802A1, “Novel compounds and therapeutic uses thereof” (TORRENT PHARMACEUTICALS LTD., priority 2002, published 2004)
# Tests used:
# [1] = In-vitro free radical scavenging activity using DPPH free radical; settings: 30° C., 30 minutes, 515 nm
# Source text: Free Radical Scavenging Activity:
# To determine the in-vitro free radical scavenging activity of compounds of general formula-I on 2,2,-diphenyl-1-picrylhydrazyl (DPPH)radical (Ref: W. Brand-Williams, M. E. Cuvelier, C. Berset “Use of a free radical method to evaluate antioxidant activity”, Lebensm.- Wiss.u.Technol.,1995,28,Nr.1:25-30).
# To evaluate the free radical scavenging activity of compounds they are allowed to react with stable radical DPPH*. In its radical form, DPPH* absorbed at the characteristic wave length of 515 nm, but upon reduction by an antioxidant or radical scavenger (AH), the absorption disappears.
# 10^−4M solution of DPPH* was prepared in methanol.
# Various concentrations (10 mM, 1 mM, 0.5 mM, 0.25 mM and 0.125 mM) of drug solutions were prepared in methanol.
# 900 μl of DPPH radical solution was added to an eppendorf tube. To it was added 100 μl of methanol.
# 900 μl of DPPH radical solution was added to an eppendorf tube. To it was added 100 μl of various concentrations of drug solutions in methanol.
# The absorbance of control and test samples was recorded after incubation at 30° C. for 30 minutes, at 515 nm taking methanol as blank.
# The percent antioxidant activity was calculated according to the formula:
# % Antioxidant activity=100−[O.D of test sample/O.D of control*100]
# Porcine DPP-IV = target: T1, Porcine DPP-IV (Sus scrofa, UniProt P22411); assay: Assay of DPP-IV enzyme inhibitory activity (spectrophotometric, Gly-Pro-pNA cleavage); format: biochemical; settings: Porcine DPP-IV, Gly-Pro-pNA substrate, 30° C.; mean ± SD of three experiments except compound Nos. 133 & 139; read-out: IC50 (μM) Mean ± SD, inhibitory activity on DPP-IV enzyme activity
# T1 construct: purchased Sigma-Aldrich Germany
# T1 sequence (P22411 whole entry): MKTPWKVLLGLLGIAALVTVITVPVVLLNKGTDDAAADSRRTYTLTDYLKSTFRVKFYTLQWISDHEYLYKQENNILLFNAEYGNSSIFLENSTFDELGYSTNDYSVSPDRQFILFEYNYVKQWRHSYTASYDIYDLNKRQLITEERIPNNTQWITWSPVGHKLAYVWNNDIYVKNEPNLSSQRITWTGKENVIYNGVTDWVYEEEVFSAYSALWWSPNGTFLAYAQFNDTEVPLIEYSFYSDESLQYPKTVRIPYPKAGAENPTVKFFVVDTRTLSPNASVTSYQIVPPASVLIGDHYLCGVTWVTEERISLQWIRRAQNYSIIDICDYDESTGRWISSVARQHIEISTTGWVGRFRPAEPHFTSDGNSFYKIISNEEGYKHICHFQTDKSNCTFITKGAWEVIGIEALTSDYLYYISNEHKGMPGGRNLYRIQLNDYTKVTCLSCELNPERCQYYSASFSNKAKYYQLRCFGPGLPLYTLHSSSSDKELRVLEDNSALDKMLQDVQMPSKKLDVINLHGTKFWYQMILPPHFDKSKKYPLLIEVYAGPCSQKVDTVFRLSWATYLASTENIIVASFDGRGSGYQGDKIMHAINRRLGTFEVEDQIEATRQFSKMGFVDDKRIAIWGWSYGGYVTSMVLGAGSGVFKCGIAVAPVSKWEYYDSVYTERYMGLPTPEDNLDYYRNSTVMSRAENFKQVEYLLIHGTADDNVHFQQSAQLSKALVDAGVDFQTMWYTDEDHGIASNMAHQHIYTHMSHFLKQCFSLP
SMILES,"% Activity (antioxidant, DPPH) ([1]; Concentration 12.5 μM)","% Activity (antioxidant, DPPH) ([1]; Concentration 25 μM)","% Activity (antioxidant, DPPH) ([1]; Concentration 50 μM)","% Activity (antioxidant, DPPH) ([1]; Concentration 100 μM)",IC50 (Porcine DPP-IV)
"N#CC1CSCN1C(=O)CN(N)C1CCN(C(=O)N2CCOCC2)CC1.O=C(O)C(F)(F)F (centres unmarked) [Compound No. 85, 3-[1-oxo-2-[1-(1(morpholinocarbonyl)-piperidin-4-yl)]hydrazino]ethyl-4-cyano-thiazolidine trifluoroacetate]",15.25%,30.67%,49.97%,67.23%,0.79 ± 0.072 µM
"CS(=O)(=O)N1CCC(N(N)CC(=O)N2CSCC2C#N)CC1.O=C(O)C(F)(F)F (centres unmarked) [Compound No. 86, 3-[1-oxo-2-[1-(1-(methylsulphonyl)-piperidin-4-yl)]hydrazino]ethyl-4-cyanothiazolidine trifluoroacetate]",22.72%,45.27%,70.18%,88.14%,1.46 ± 0.22 µM
"CC(C)NN(CC(=O)N1CSCC1C#N)C1CCN(S(C)(=O)=O)CC1.O=C(O)C(F)(F)F (centres unmarked) [Compound No. 87, 3-[1-oxo-2-[1-(1 (methylsulphonyl)-piperidin-4-yl)-2-isopropyl]hydrazino]ethyl-4-cyanothiazolidine trifluoroacetate]",12.87%,30.88%,44.03%,55.94%,18.3 ± 3.2 µM
"CCNN(CC(=O)N1CSCC1C#N)C1CCN(S(C)(=O)=O)CC1.O=C(O)C(F)(F)F (centres unmarked) [Compound No. 88, 3-[1-oxo-2-[1-(1-(methylsulphonyl)-piperidin-4-yl)-2-ethyl]hydrazino]ethyl-4-cyanothiazolidine trifluoroacetate]",14.49%,44.12%,56.11%,69.34%,3.75 ± 0.101 µM
"CCNN(CC(=O)N1CSCC1C#N)C1CCN(C(=O)N2CCOCC2)CC1.O=C(O)C(F)(F)F (centres unmarked) [Compound No. 89, 3-[1-oxo-2-[1-(1-(morpholinocarbonyl)-piperidin-4-yl)-2-ethyl]hydrazino]ethyl-4-cyanothiazolidine trifluoroacetate]",10.37%,20.74%,36.94%,55.07%,0.985 ± 0.086 µM
"CCN(C)C(=O)N1CCC(N(N)CC(=O)N2CSCC2C#N)CC1.O=C(O)C(F)(F)F (centres unmarked) [Compound No. 90, 3-[1-oxo-2-[1-(1-(N-ethylmethylaminocarbonyl)-piperidin-4-yl)]hydrazino]ethyl-4-cyanothiazolidine trifluoroacetate]",21.81%,42.93%,62.91%,82.75%,1.23 ± 0.3 µM
"COc1ccc(S(=O)(=O)N2CCC(N(N)CC(=O)N3CSCC3C#N)CC2)cc1.O=C(O)C(F)(F)F (centres unmarked) [Compound No. 91, 3-[1-oxo-2-[1-(1-(4-methoxyphenylsulphonyl)-piperidin-4-yl)]hydrazino]ethyl-4-cyanothiazolidine trifluoroacetate]",17.16%,38.11%,58.87%,85.69%,6.7 ± 0.4 µM
